Laboratory results taken from US20240285773A1, “METHODS OF TREATING MYELODYSPLASTIC SYNDROME AND MONITORING THE TREATMENT” (Geron Corporation, priority 2023, published 2024).
Read-outs that look alike come from different tables or passages of the source. [nps] = N3'→P5' thiophosphoramidate linkage; {Palm} = palmitoyl lipid

Tests used:
SF3B1 = experiment: Gene mutation analysis (NGS): SF3B1 VAF and clinical response; format: in vivo, human
Description: VAF for the target genes can be determined and/or measured using any convenient methods. In one such method, whole blood collected in an EDTA tube is used to perform Next Generation Sequencing (NGS), for example, using LeukoVantage®. NGS using any other sequencing platform can be used, for example, nanopore sequencing, paired-end sequencing, Ion Torrent sequencing, and single molecule real time (SMRT) sequencing. An MDS gene panel can be used. For example, a gene panel containing one or more of SF3B1, TET2, DNMT3A and ASXL1 can be used. In a specific embodiment, a gene panel that includes the following 36 genes was used: ASXL1, ATM, BCOR, CBL, CEBPA, CSF3R, CUX1, DNMT3A, ETNK1, ETV6, EZH2, FLT3, GATA2, IDH1, IDH2, IKZF1, JAK2, KRAS, NF1, NPM1, NRAS, PHF6, PTEN, PTPN11, RUNX1, SETBP1, SF3B1, SRSF2, STAG2, STAT3, STK11, TET2, TP53, U2AF1, WT1, ZRSR2. The NGS assay can be performed using DNA bait capture methodology on the NextSeq® (Illumina®) platform. Following DNA extraction from leukocytes, a targeted, amplicon-based NGS method is used to detect mutations. […] The percentage of mutation reads will be reported and can be used to assess the size of the clonal population. VAF is the percentage of sequence reads observed matching a specific DNA variant divided by the overall coverage at that locus. Because NGS provides a near random sample, VAF is thus a surrogate measure of the proportion of DNA molecules in the original specimen carrying the variant.
VAF changes were assessed from blood taken pre- and every 12 weeks post-treatment in patients with greater than or equal to 5% variant allele at baseline and >1 post-baseline assessment. T-tests evaluated group comparison, Fisher's exact test evaluated association, and linear regression evaluated correlation. […] The patients achieving ≥8-weeks, ≥24-weeks, and >1-year TI in the imetelstat group were enriched with patients who had ≥50% reductions in SF3B1 and TET2 VAF compared with placebo (FIG. 10).
Blood samples were collected at baseline and during study visits approximately every 12 weeks. Following DNA extraction from leukocytes, a targeted, amplicon-based next generation sequencing was performed at Quest Diagnostics using DNA bait capture methodology on the NextSeq® (Illumina®) platform and a LeukoVantage® MDS Gene Panel covering 36 MDS-relevant genes. The lower limit of sensitivity is 5% mutated alleles in a mixed population; the percentage of mutation reads is reported and used to assess the size of the clonal population.

TET2 = experiment: Gene mutation analysis (NGS): TET2 VAF and clinical response; format: in vivo, human; settings: imetelstat group
Description: (§1) VAF for the target genes can be determined and/or measured using any convenient methods. In one such method, whole blood collected in an EDTA tube is used to perform Next Generation Sequencing (NGS), for example, using LeukoVantage®. NGS using any other sequencing platform can be used, for example, nanopore sequencing, paired-end sequencing, Ion Torrent sequencing, and single molecule real time (SMRT) sequencing. An MDS gene panel can be used. For example, a gene panel containing one or more of SF3B1, TET2, DNMT3A and ASXL1 can be used. […] The percentage of mutation reads will be reported and can be used to assess the size of the clonal population. VAF is the percentage of sequence reads observed matching a specific DNA variant divided by the overall coverage at that locus. […]
(§2) VAF changes were assessed from blood taken pre- and every 12 weeks post-treatment in patients with greater than or equal to 5% variant allele at baseline and >1 post-baseline assessment. T-tests evaluated group comparison, Fisher's exact test evaluated association, and linear regression evaluated correlation. […]
(§3) Blood samples were collected at baseline and during study visits approximately every 12 weeks. […] The lower limit of sensitivity is 5% mutated alleles in a mixed population; the percentage of mutation reads is reported and used to assess the size of the clonal population.

DNMT3A = experiment: Gene mutation analysis (NGS): DNMT3A VAF and clinical response; format: in vivo, human; settings: imetelstat group
Description: as §1, §2, §3

patients with LR-MDS = experiment: Patient-reported fatigue (FACIT Fatigue Scale); format: in vivo, human; settings: PRO population
Description: To measure patient-reported fatigue, data were collected using the validated Functional Assessment of Chronic Illness Therapy (FACIT) Scale and analyzed in all randomized patients with available fatigue data at baseline (PRO population). The FACIT is a 13-item questionnaire measuring fatigue during daily activity. Proportion of sustained, meaningful deterioration/improvement was defined as percentage of pts with ≥3-point decrease/increase on the FACIT Fatigue Scale (0-52) for ≥2 consecutive treatment cycles. Additionally, time-to-deterioration/improvement was estimated by Kaplan-Meier analysis. Sensitivity analyses were performed in the intent-to-treat population and with alternate definitions of meaningful deterioration.
Exploratory End Point Patient-Reported Fatigue: Proportion of sustained meaningful deterioration/improvement was defined as percentage of patients with ≥3-point decrease/increase on the Functional Assessment of Chronic Illness Therapy (FACIT) Fatigue Scale (0-52) for ≥2 consecutive treatment cycles.
Meaningful improvement in FACIT Fatigue: Psychometric supportive evidence for the use of the FACIT Fatigue in the context of LR-MDS confirms the previously published threshold of a 3-point change for meaningful within-patient change for the FACIT Fatigue.

bone marrow RS cells = experiment: Reduction in bone marrow ring sideroblasts; set-up: species or system human; settings: in vivo
Description: FIG. 20. […] Also, RBC-TI responders were higher in patients achieving ≥50% reduction in central bone marrow RS.

[1] = system: RBC transfusion-dependent patients with IPSS low or intermediate-1 risk MDS
[2] = SF3B1 VAF ≥50% reduction No (N=55)
[3] = SF3B1 VAF ≥50% reduction Yes (N=23)
[4] = by lab assessment, listed as imetelstat

## Imetelstat: first-in-class telomerase inhibitor; synthetic lipid-conjugated 13-mer oligonucleotide N3′→P5′-thiophosphoramidate (TAGGGTTAGACAA; all [nps], 5' {Palm}, sugars by position and methylation of C not given here)
SF3B1; 18 ≥1-year TI responders with mutation data
  Maximal reduction in SF3B1 VAF: −6% to −100%
SF3B1; [2]
  1-Year RBC-TI Yes: 5.5%
  8-Week RBC-TI Yes: 38.2%
  24-Week RBC-TI Yes: 23.6%
SF3B1; [3]
  1-Year RBC-TI Yes: 47.8%
  8-Week RBC-TI Yes: 82.6%
  24-Week RBC-TI Yes: 69.6%
SF3B1; imetelstat group, n=67
  Pearson's r: maximum % reduction in SF3B1 VAF vs maximum change in hemoglobin: −0.626
SF3B1; ≥1-year TI responders (of 18)
  Complete elimination of the SF3B1 VAF, patients: 7 patients
  ≥50% SF3B1 VAF reduction: 72.2%
  ≥50% SF3B1 VAF reduction, patients: 13 patients
TET2; n=32
  Pearson's r: maximum % reduction in TET2 VAF vs maximum change in hemoglobin: −0.659
TET2; n=38
  Pearson's r: maximum % reduction in TET2 VAF vs duration of TI: −0.577
DNMT3A; n=13
  Pearson's r: maximum % reduction in DNMT3A VAF vs maximum change in hemoglobin: −0.667
DNMT3A; n=18
  Pearson's r: maximum % reduction in DNMT3A VAF vs duration of TI: −0.545
Patients with LR-MDS
  HR, time to first sustained meaningful improvement in fatigue vs placebo: 1.34
  Median time to first sustained, meaningful improvement in fatigue: 28.3 weeks
Patients with LR-MDS; 118 patients
  Patients with any episode of sustained, meaningful deterioration in fatigue: 43.2%
  Patients with sustained, meaningful improvement in fatigue: 50.0%
Bone marrow RS cells
  Patients achieving ≥50% reduction in bone marrow RS cells: 41%
[1]; Cycle 10-12 (N=53)
  Thrombocytopenia, maximum postbaseline CTCAE Grade 4: 0 No. of Patients
[1]; N=118
  ALP abnormality, Grade 3-4: 0 No. of patients
  Serious TEAE: Abscess limb: 0 No.
[1]; N=118, listed as imetelstat
  Patients with any dose reduction: 49%
  Withdrawal TEAE: Neutropenia: 5%
  Withdrawal TEAE: Thrombocytopenia: 3%
[1]; TEAE, N=118
  Asthenia, Grade 3-4: 0 No. of patients
  Constipation, Grade 3-4: 0 No. of patients
  Edema peripheral, Grade 3-4: 0 No. of patients
[1]; by lab assessment
  G3/4 Neutropenia events: 279 no. of events
  G3/4 Neutropenia median duration: 1.86 Weeks
  G3/4 Thrombocytopenia events: 212 no. of events
  G3/4 Thrombocytopenia median duration: 1.43 Weeks
[1]; [4]
  G3/4 Neutropenia median duration: 1.9 Weeks
  G3/4 Thrombocytopenia median duration: 1.4 Weeks
[1]; in vivo
  Dose delays due to neutropenia: 50.8%
  Dose delays due to thrombocytopenia: 46.6%
  Dose reductions due to neutropenia: 33.1%
  Dose reductions due to thrombocytopenia: 22.9%
  Patients with cytopenias reversible to Grade ≤2 within 4 weeks: more than 80%
[1]; n=118
  Discontinued: Progressive disease: 6%
[1]; patients with TI ≥1 year
  Grade 3-4 neutropenia: 95%
  Grade 3-4 neutropenia, patients: 20 patients
  Grade 3-4 thrombocytopenia: 67%
  Grade 3-4 thrombocytopenia, patients: 14 patients
  Grade 3/4 neutropenia events, mean (SD) duration: 1.78 (1.58) weeks
  Grade 3/4 neutropenia reversible to grade ≤2 within 4 weeks: 81%
  Grade 3/4 thrombocytopenia events, mean (SD) duration: 2.25 (2.48) weeks
  Grade 3/4 thrombocytopenia reversible to grade ≤2 within 4 weeks: 89%
[1]; resolved to ≤ Grade 2
  G3/4 Neutropenia resolved <4 weeks: 81%
  G3/4 Thrombocytopenia resolved <4 weeks: 86%
